Active and inactive are the calls of the source. The calls are words filed in the database; no cut-off is given here.
Legend:
[1] = test system: HCT-116; assay: Antiproliferative activity against human HCT-116 cells assessed as inhibition of cell growth incubated for 72 hrs by luminescence based analysis; format: functional; details: HCT-116, 72 h
[2] = target: T1, Histone deacetylase 1 (Homo sapiens, UniProt Q13547); assay: Inhibition of HDAC1 in human HCT-116 cells assessed as increase in DR5 protein expression at 0.5 uM incubated for 12 hrs by Western blot analysis; format: cell-based
[3] = test system: HepG2; assay: Antiproliferative activity against human HepG2 cells assessed as inhibition of cell growth incubated for 72 hrs by luminescence based analysis; format: functional; details: HepG2, 72 h
[4] = target: T1, Histone deacetylase 1; assay: Inhibition of human HDAC1 using RHKKAc fluorogenic peptide as substrate preincubated for 10 mins followed by substrate addition by fluorescence based analysis
[5] = test system: MV4-11; assay: Antiproliferative activity against human MV4-11 cells assessed as inhibition of cell growth incubated for 72 hrs by luminescence based analysis; format: functional; details: MV4-11, 72 h
[6] = target: T1, Histone deacetylase 1; assay: Inhibition of human HDAC1 assessed as residual activity at 1 uM using RHKKAc fluorogenic peptide as substrate preincubated for 10 mins followed by substrate addition by fluorescence based analysis relative to control
[7] = test system: HCT-116; assay: Induction of apoptosis in human HCT-116 cells assessed as early apoptotic cells at 0.5 uM incubated for 24 hrs by AnnexinV-FITC/PI staining based flow cytometry (reference value: 0.93 %); format: functional
[8] = test system: HCT-116; assay: Induction of apoptosis in human HCT-116 cells assessed as viable cells at 0.5 uM incubated for 24 hrs by AnnexinV-FITC/PI staining based flow cytometry (reference value: 93.64%); format: functional; details: read-out: Activity
[9] = test system: HCT-116; assay: Induction of apoptosis in human HCT-116 cells assessed as late apoptotic cells at 0.5 uM incubated for 24 hrs by AnnexinV-FITC/PI staining based flow cytometry (reference value: 0.82 %); format: functional
[10] = test system: HCT-116; assay: Induction of apoptosis in human HCT-116 cells assessed as dead cells at 0.5 uM incubated for 24 hrs by AnnexinV-FITC/PI staining based flow cytometry (reference value: 4.62 %); format: functional
[11] = test system: HCT-116; assay: Antiproliferative activity against human HCT-116 cells assessed as residual activity at 2 uM incubated for 72 hrs by luminescence based analysis relative to control; format: functional

T1 sequence (Q13547 whole entry): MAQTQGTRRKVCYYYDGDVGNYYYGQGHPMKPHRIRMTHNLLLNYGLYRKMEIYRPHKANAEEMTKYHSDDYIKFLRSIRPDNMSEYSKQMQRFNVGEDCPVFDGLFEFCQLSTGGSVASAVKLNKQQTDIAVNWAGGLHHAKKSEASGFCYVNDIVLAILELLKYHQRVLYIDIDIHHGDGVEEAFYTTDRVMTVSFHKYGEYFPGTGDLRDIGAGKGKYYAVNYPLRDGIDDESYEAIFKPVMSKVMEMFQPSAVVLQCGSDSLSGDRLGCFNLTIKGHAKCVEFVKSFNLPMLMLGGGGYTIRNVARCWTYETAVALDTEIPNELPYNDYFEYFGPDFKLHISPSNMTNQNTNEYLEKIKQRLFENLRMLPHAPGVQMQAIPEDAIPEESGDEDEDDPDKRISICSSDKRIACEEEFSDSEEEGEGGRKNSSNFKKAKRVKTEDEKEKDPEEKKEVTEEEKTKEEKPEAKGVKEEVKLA

For `NC1=C(CCCc2ccccc2)C(=O)N(Cc2ccc(C(=O)Nc3ccccc3N)cc2)C2=NCCN21`, the IC50 [1] was 673 nM, the inhibition [2] was “Active” and the IC50 [3] was 4.49 µM. It also gave an IC50 [4] of 66.9 nM and an IC50 [5] of 1270 nM.
Work on `Nc1ccccc1NC(=O)c1ccc(CN2CCC3=C(C2)C(=O)N(Cc2cccnc2)C2=NCCN23)cc1` yielded an Activity [6] of 46.4%.
With `Nc1cc(F)ccc1NC(=O)c1ccc(CNC(=O)/C=C/c2cccnc2)cc1` [TUCIDINOSTAT] the Activity [7] was 1.22%, the viability at 0.5 µM [8] was 88.8% and the IC50 [3] was 2 µM. It also gave an Activity [9] of 1.66%, an Activity [10] of 8.27% and an IC50 [5] of 783 nM.
Molecule `Nc1ccccc1NC(=O)c1ccc(CN2C(=O)C3=C(CCN(Cc4nc5ccccc5[nH]4)C3)N3CCN=C23)cc1` has an Activity [6] of 58.3%.
Molecule `Cc1ccccc1CN1CCC2=C(C1)C(=O)N(Cc1ccc(C(=O)Nc3ccc(F)cc3N)cc1)C1=NCCN12` has an Activity [6] of 68%.
Work on `CC(c1ccccc1)N1C(=O)C2=C(CCN(Cc3ccc(C(=O)Nc4ccccc4N)cc3)C2)N2CCN=C21` (stereo not drawn) yielded an Activity [6] of 46.3%.
`Nc1ccccc1NC(=O)c1ccc(CN2C(=O)C3=C(CCN(Cc4ccccc4)C3)N3CCN=C23)cc1` was tested, and the IC50 [1] was 1450 nM, the inhibition [2] was “Active” and the IC50 [3] was 4 µM. It also gave an IC50 [4] of 198 nM and an IC50 [5] of 753 nM.
In the case of `Nc1ccccc1NC(=O)c1ccc(CN2CCC3=C(C2)C(=O)N(Cc2cccc(F)c2)C2=NCCN23)cc1`, the Activity [6] is reported as 49.1%.
`Nc1ccccc1NC(=O)c1ccc(CN2C(=O)C3=C(CCN(C(=O)/C=C/c4ccc(Cl)cc4F)C3)N3CCN=C23)cc1` showed an IC50 [1] of 662 nM, an IC50 [3] of 6.17 µM and an IC50 [4] of 278 nM. For the same molecule, the IC50 [5] was 1450 nM.
For `NC1=C(CCCc2ccccc2)C(=O)N(Cc2ccc(C(=O)Nc3ccc(F)cc3N)cc2)C2=NCCN21`, the IC50 [4] was 413 nM.
Work on `Nc1ccccc1NC(=O)c1ccc(CN2C(=O)C3=C(CCN(Cc4ccc5ccccc5c4)C3)N3CCN=C23)cc1` yielded an Activity [6] of 58.1%.
`COc1ccc(CN2CCC3=C(C2)C(=O)N(Cc2ccc(C(=O)Nc4ccccc4N)cc2)C2=NCCN23)cc1` gave an Activity [6] of 44.4%.
Molecule `CNC1=C(CCCc2ccccc2)C(=O)N(Cc2ccc(C(=O)Nc3ccccc3N)cc2)C2=NCCN21` has an Activity [6] of 63.8%.
Work on `Nc1cc(F)ccc1NC(=O)c1ccc(CN2C(=O)C3=C(CCN(Cc4ccccc4)C3)N3CCN=C23)cc1` yielded an Activity [6] of 78.3%.
`Cc1ccccc1CN1C(=O)C2=C(CCN(Cc3ccc(C(=O)Nc4ccccc4N)cc3)C2)N2CCN=C12` was tested, and the IC50 [1] was 1080 nM, the IC50 [3] was 3.56 µM and the IC50 [4] was 253 nM. It also gave an IC50 [5] of 801 nM.
Work on `Nc1ccccc1NC(=O)c1ccc(CN2C(=O)C(CCCc3ccccc3)=C(O)N3CCN=C23)cc1` yielded an IC50 [4] of 600 nM.
`Cc1ccc(/C=C/C(=O)N2CCC3=C(C2)C(=O)N(Cc2ccc(C(=O)Nc4ccccc4N)cc2)C2=NCCN23)o1` was tested, and the Activity [11] was 79.55%, the IC50 [3] was 4.52 µM and the IC50 [4] was 377 nM. The IC50 [5] was 2430 nM.
Work on `N#Cc1ccc(CN2C(=O)C3=C(CCN(Cc4ccc(C(=O)Nc5ccccc5N)cc4)C3)N3CCN=C23)cc1` yielded an IC50 [1] of 967 nM, an IC50 [3] of 4.72 µM and an IC50 [4] of 174 nM. For the same molecule, the IC50 [5] was 957 nM.
`Nc1ccccc1NC(=O)c1ccc(CN2C(=O)C3=C(CCN(Cc4ccc(Cl)c(C(F)(F)F)c4)C3)N3CCN=C23)cc1` gave an Activity [6] of 52.2%.
In the case of `NC1=C(CCNC(=O)c2ccccc2)C(=O)N(Cc2ccc(C(=O)Nc3ccccc3N)cc2)C2=NCCN21`, the Activity [11] is reported as 88.98%, the IC50 [3] is reported as 1.27 µM and the IC50 [4] is reported as 273 nM. It also gave an IC50 [5] of 828 nM.
